Experiment: Human HepG2 cell viability assay in 384 well format
Format: toxicity, cell-based
Set-up: dose 125 nL, time 70.5 hour; concentration not given beside the values
Conditions: HepG2 cells, read-out: Inhibition

Structure (SMILES) | cytotoxicity at 70.5 h [%]
CCCc1cc(NC2CCc3nc(C(C)C)nn3C2)n2ncnc2n1 (centres undefined) | -104
c1csc(-c2nc(CN3CCCC3Cn3cccn3)co2)c1 (centres undefined) | -75.5
Cc1cnn(CC2CCCN2Cc2coc(-c3cccc(F)c3)n2)c1 (centres undefined) | -113
CCS(=O)(=O)CCCOc1nc(-c2ccccc2Cl)no1 | -96.6
O=C1CCC(=O)N1CCOc1nc(-c2ccccc2Cl)no1 | -77.6
Cc1n[nH]c(C2CN(CC(=O)NCc3sccc3C)CCO2)n1 (centres undefined) | -93.4
O=C(NS(=O)(=O)c1cc(Cl)ccc1Cl)c1cccc2c1OCCO2 | 58.5
O=C(NS(=O)(=O)c1ccc(Cl)cc1F)c1cccc2c1OCCO2 | -108
CCSc1cc(C(=O)NCCNC(=O)N(C)C)ccn1 | -76.6
Cc1cc(C(=O)N2CCN(S(C)(=O)=O)[C@@H](C)C2)c(F)cc1F | -97.9
Cc1cc(NC2CCc3ncnn3C2)n2nc(C(F)(F)F)nc2n1 (centres undefined) | -95.5
Cc1ccc(F)cc1C(=O)N1CCN(S(C)(=O)=O)[C@@H](C)C1 | -82.4
CN(Cc1ccc(N2CCOCC2)cc1)Cc1noc(C(C)(C)C)n1 | 7.66
COCCc1noc(CN2CCCC2c2noc(C3CC3)n2)n1 (centres undefined) | -1.05
O=C(C(CNCc1ccccn1)c1ccccc1)N1CCOCC1 (centres undefined) | 0.375
O=S(=O)(NCC1COc2ccccc2C1)N1CCCCC1 (centres undefined) | -9.29
CC(C(=O)N1CCN(Cc2ccncc2)CC1)n1cncn1 (centres undefined) | -4.9
N#Cc1ccc(CNc2cccc(C(=O)N3CCOCC3)c2)cc1 | -9.56
Cc1ccc(OCCNc2cccc(C(=O)N3CCOCC3)c2)cc1 | 23.6
CC(C)Cc1nc(CN2CCC(NC(=O)c3cccs3)CC2)no1 | -6.12
CC(C)c1nn(C)c(N(C)C)c1CNCC(O)COc1ccccc1 (centres undefined) | -3.95
Cc1noc(C)c1CN1CCN(C(=O)C(C(C)C)n2cncn2)CC1 (centres undefined) | 2.25
CC(C)(C)C(=O)NCCCC(=O)NC(C)(C)c1ccc2c(c1)OCO2 | 3.16
COc1ccc(OCCNc2cccc(C(=O)N3CCOCC3)c2)cc1 | -3.69

Structure (SMILES) | cytotoxicity at 70.5 h [%]
CC(C)(C)C(=O)NCCC(=O)NC(C)(C)c1ccc2c(c1)OCO2 | -3.54
O=C(C(CNCc1cccc(O)c1)c1ccccc1)N1CCOCC1 (centres undefined) | -4.48
COCC(NC(=O)c1ccoc1C)c1cccc(C(F)(F)F)c1 (centres undefined) | -2.1
O=C(C(CNCc1ccccc1O)c1ccccc1)N1CCOCC1 (centres undefined) | -2.58
CC(=O)N1CCc2cc(Cl)cc(Cl)c2C1 | -5.27
COCCOCC(=O)N1CCc2cc(Cl)cc(Cl)c2C1 | -6.61
COC(=O)NCC(=O)N1CCc2cc(Cl)cc(Cl)c2C1 | -1.77
CC(C)c1noc(CN(Cc2ccccc2)C2CC2)n1 | 0.0143
CCOc1cc(CN(C)Cc2ccccc2)ccc1OC(F)F | -6.62
CSc1ccc(CN(C)Cc2noc(C(C)(C)C)n2)cc1 | -6.11
CCOc1cc(CN(C)CCCO)ccc1OC(F)F | -6.49
COCC(NC(=O)c1cccnc1)c1cccc(C(F)(F)F)c1 (centres undefined) | -5.85
CCc1nc(C2CCCN2Cc2nc(C(C)(C)C)no2)no1 (centres undefined) | 2.43
CC(C)c1noc(CN(Cc2ccc(F)cc2)C2CC2)n1 | -8.41
CN(Cc1noc(C(C)(C)C)n1)Cc1ccccc1N1CCCCC1 | -6.13
Cc1cc(CN2CCc3cncnc3C2)on1 | 9.54
Cc1cnn(CCNCC(O)c2ccc3c(c2)OCCO3)c1 (centres undefined) | 4.42
CCN(CC)c1ncc(CNC2CCc3nc(C)nn3C2)s1 (centres undefined) | 4.79
CN(CC(N)=O)C(=O)c1cc(Cl)c(Cl)n1C | -5.05
Cc1nnc(C2Cc3ccccc3CN2Cc2ncc(Cl)n2C)o1 (centres undefined) | -13.3
C=C(C)CN1CCCC(NS(C)(=O)=O)C1 (centres undefined) | -5.08
CNC(=O)CN(C)C(=O)c1cc(Cl)c(Cl)n1C | 17.1
CCNC(=O)NC(=O)CN1CCCC1c1nc(C2CCCCC2)co1 (centres undefined) | -7.64
NC(=O)NC(=O)CCN1CCCC1c1nc(C2CCCCC2)co1 (centres undefined) | 13.4

Structure (SMILES) | cytotoxicity at 70.5 h [%]
COCCCn1ccc(NC(=O)NCc2cccc(N(C)C)c2)n1 | -5.16
CN(C)C(=O)CCCn1ccc(NC(=O)NCc2cccc(F)c2)n1 | -16.5
CCc1nc2n(n1)CC(NCc1cnc(N(CC)CC)s1)CC2 (centres undefined) | -18.7
Cc1cccc(CNC(=O)Nc2ccn(CCN(C)C)n2)c1 | -7.32
CN(CC(=O)Nc1cc(-c2cc(Cl)cc(Cl)c2)[nH]n1)S(C)(=O)=O | -5.73
Cn1ccnc1CN(CCCO)CC(F)(F)F | 0.0577
CCc1cc(CNCc2ccccc2N(C)C2CCN(C)CC2)on1 | -1.28
CN(C)CCn1ccc2cc(NC(=O)NCc3ncnn3C)ccc21 | -3.79
O=C(NCCO)NCC(c1ccccc1)N1CCc2sccc2C1 (centres undefined) | -13.1
CC(NC(=O)Nc1nccs1)c1ccncc1 (centres undefined) | -10.5
CC(NC(=O)Nc1nccs1)c1cccnc1 (centres undefined) | -2.43
Cc1cccc(N2N=C(C(=O)NC(C)Cn3cccn3)CCC2=O)c1 (centres undefined) | -14.7
Cc1ccc(C(=O)NCC2COCCO2)c(=O)[nH]1 (centres undefined) | -17
CCN1CCC(NC(=O)Cc2csc(C(C)(C)C)n2)CC1 | 24.8
Cc1cc(NC(=O)Nc2ccc3c(ccn3CCN(C)C)c2)n(C)n1 | 2.58
Cn1cccc1-c1nnc(C2(c3ccc4c(c3)OCO4)CCOCC2)o1 | -9.42
c1cncc(-c2nnc(C3(c4ccc5c(c4)OCO5)CCOCC3)o2)c1 | -15.4
CCCc1noc(CCC(=O)N2CCCC(c3ccn[nH]3)C2)n1 (centres undefined) | -9.26
CCOCc1ccc(NC(=O)C(C)C)cc1 | 19.1
CCc1noc(CC)c1CC(=O)N1CCC(C(=O)NC(C)C)CC1 | -3.58
CN(C)CCn1ccc2cc(NC(=O)NCc3ccon3)ccc21 | -8.32
CCc1noc(C(C)SCCS(C)(=O)=O)n1 (centres undefined) | -7.13
CCOCCCC(=O)NCC(c1ccccc1)N1CCc2sccc2C1 (centres undefined) | 16.8
CC(C)(C)c1nc(CC(=O)NC2CCN(C3CC3)C2)cs1 (centres undefined) | -6.08

Structure (SMILES) | cytotoxicity at 70.5 h [%]
CCCNC(=O)CN1CCOC(CC)C1 (centres undefined) | -15.7
CCC1CN(CC(=O)NC(C)C)CCO1 (centres undefined) | -10.4
CCC1CN(CC(=O)NCCOC)CCO1 (centres undefined) | -4.46
CN1CCC(N(C)c2ccccc2CNCc2ccco2)CC1 | 30.3
Cc1noc(C)c1CNCc1ccccc1N(C)C1CCN(C)CC1 | -4.38
CCN(CCc1nccs1)C(=O)c1ncoc1C | -13.2
O=C(CCCc1nc(C2CC2)no1)N1CCCC(c2ccn[nH]2)C1 (centres undefined) | -7.72
COCCN(Cc1ccccn1)C(=O)c1ccc(=O)n(C)c1 | 1.44
CCN(Cc1cccs1)C(=O)c1ccc(=O)n(C)c1 | 1.17
O=C(CCN1C(=O)CCC1=O)Nc1ccc(OCC(F)(F)F)nc1 | -0.0202
COc1c(Cl)cc(C(=O)NCCNc2ncccn2)cc1Cl | 20.5
Cc1noc(CCCC(=O)Nc2cc(C(F)(F)F)c[nH]c2=O)n1 | -3.91
CNC(=O)c1ccc(NC(=O)NC(C)c2cc(C)oc2C)c(C)c1 (centres undefined) | -5.7
O=C(CCc1ccccc1)N1CCC(c2n[nH]c(C3CC3)n2)CC1 | -7.31
COc1cc(OC)cc(C(=O)NCCCNc2ncccn2)c1 | -7.17
NC(=O)C1=NC2=NS(=O)(=O)c3ccccc3N2N1Cc1ccc(Cl)cc1 | 1.74
Cn1c(N)nnc1SCc1ccc(Cl)cc1Br | -11.2
Cc1ccc(CNC(=O)c2c[nH]nc2NC(=O)C2COCCO2)cc1 (centres undefined) | -0.405
CCCNC(=O)CCC(=O)N1CCC(c2n[nH]c(C3CC3)n2)CC1 | 21.7
O=C(NCc1ccccc1OCC1CC1)C1CCOC1 (centres undefined) | 1.2
CCOc1cc(NC(=O)N(C)Cc2ncnn2C)ccc1C | 20.6
CCOc1ccc(NC2CCN(C(C)C)C2=O)cn1 (centres undefined) | -3.98
COc1ccc(NC2CCN(C3CC3)C2=O)cn1 (centres undefined) | 5.36
CCC(C)Oc1cc(C(=O)Nc2nnc(C(C)C)[nH]2)ccn1 (centres undefined) | 3.52

Structure (SMILES) | cytotoxicity at 70.5 h [%]
CC(=O)N(CCc1ccccc1)CC(=O)NC(C)(C)C#N | -2.72
CCN(C(=O)NCc1cccnc1N(C)C)C(C)c1cccnc1 (centres undefined) | -8.8
Cc1nc(CNC2CCN(Cc3ccccc3)C2)sc1C (centres undefined) | -4.16
CCC1COCCN1C(=O)NCc1cccc(-c2cnn(C)c2)c1 (centres undefined) | -6.22
CCn1nc(C(=O)N2CCCC2c2noc(C3CC3)n2)ccc1=O (centres undefined) | 12.1
Cc1cccc(N(CCC#N)S(=O)(=O)CC2CCCCO2)c1 (centres undefined) | 34.5
CCCn1nc(C(=O)N2CCCC2c2noc(C)n2)ccc1=O (centres undefined) | -0.244
N#CCCNC(=O)CN1CCC(c2cc3ccccc3[nH]2)CC1 | -10.1
CN(C(=O)CN1CCC(c2cc3ccccc3[nH]2)CC1)C(C)(C)C#N | -16.1
CN(CCC#N)C(=O)CN1CCC(c2cc3ccccc3[nH]2)CC1 | 4.21
Cc1cc(NC(C)C(=O)NCc2ccccc2)nc(-c2ccncc2)n1 (centres undefined) | -13.1
CCN(CC)c1ccc(C(=O)NCC2(C(N)=O)CCOCC2)cn1 | -4.92
O=C(NC1CCN(c2ncccn2)CC1)c1cc2c([nH]c1=O)CCC2 | -10.7
CN(CC(F)(F)F)C(=O)CN1CCC(c2cc3ccccc3[nH]2)CC1 | -25
O=C(CN1CCc2[nH]c3ccccc3c2C1)NCc1ccco1 | -10.8
CN(C)C(=O)C1CCN(Cn2ccc(-c3ccc(F)cc3)n2)CC1 | -12.5
CN1CCCC(N2CCN(c3cc(C(F)(F)F)ccn3)CC2)C1 (centres undefined) | -5.61
Cc1ccc(N2CCC(NCc3cnc(C4CCC4)s3)CC2)nc1 | 6.63
CCC(C)NC(=O)CCc1ccnc2ccccc12 (centres undefined) | 2.59
O=C(NCc1ccc2c(c1)OCO2)N1CCCC2(C1)OCCO2 | -7.83
COc1c(Br)cccc1CCNC(=O)c1csnn1 | -11.9
Cn1ccc(CNC(=O)N2CCC(C3(C)OCCO3)CC2)c1 | -8.7
Cc1sc(Br)cc1S(=O)(=O)NCCN | -7.86

— ChEMBL document CHEMBL3507680, “University of Dundee, Gates Library screen for HepG2 cell viability”
